Patent publication US10364270B2, “Eye-care peptide, its composition and method of using the same” (PRO SUNFUN BIOTECH RESEARCH AND DEVELOPMENT CO., LTD., priority 2017, dated 2019)
Peptide text beside a SMILES is read from it.

System: HCEC cells
Experiment: MTT assay, viability of HCEC cells
Assay type: cell-based, Human
Method: Human corneal epithelial cell line, HCEC, was cultured in complete KSF containing keratinocyte-serum free medium, 5 ng/ml human recombinant EGF, 0.05 mg/ml bovine pituitary extract, 0.005 mg/ml insulin and 500 ng/ml hydrocortisone under 5% CO2 at 37° C.
Cells (2×10^4) in 1 ml complete KSF were seeded in 12-well plates with or without Peptide NO. 12. Seventy microliters of 5 mg/ml 3-(4,5-dimethyl-2-thiazolyl)-2,5-diphenyl-2H-tetrazolium bromide solution (MTT; Sigma) was added to each well for the indicated times and incubated at 37° C. for 3 hours, after which 700 μl 10% SDS in 0.01 N HCl was added to dissolve the MTT formazan crystals. The resultant optical density was measured spectrophotometrically at dual wavelengths, 550 and 630 nm.

For `CC(C)C[C@H](NC(=O)[C@@H]1CCCN1C(=O)[C@H](CC(N)=O)NC(=O)[C@@H](N)CCCNC(=N)N)C(=O)N[C@@H](CCC(=O)O)C(=O)N[C@@H](CCC(=O)O)C(=O)N[C@H](C(=O)O)[C@@H](C)O` [Peptide NO. 12, ArgAsnProLeuGluGluThr] (H-RNPLEET-OH; N-terminus and C-terminus assumed), the “viability of HCEC cells” value (24 hours, 5, 10, 25 and 50 μg/ml, FIG. 3) was “did not significantly affect viability of HCEC cells” and the “viability of HCEC cells” value (48 hours, 5, 10, 25 and 50 μg/ml, FIG. 4) was “did not significantly affect viability of HCEC cells”.
